One assay deals with M. truncatula. Put plainly: Lateral root emergence in M. truncatula. It is filed as in vivo, Medicago truncatula. Particulars: 10^−7 M; fold induction relative to the control; FIG. 7. On the procedure: M. truncatula roots were treated with 10^−7 M CO4 or 10^−7 M NS-LCO and the effect on lateral root emergence was measured. The numbers in parentheses indicate the number of plants analyzed. The significance of the difference to the […] control plants, as measured using a t-test, is indicated. The treatments are measured as fold induction relative to the control. Error bars represent the standard error.
Accordingly, the disclosed method is limited in scope to treating non-leguminous plants, or seeds, seedlings or plant parts thereof.

Assay [1] deals with rice trichoblasts (root hair cells). Put plainly: Calcium spiking (YC3.6 imaging) in rice trichoblasts (root hair cells). It is filed as cell-based, Oryza sativa cv Nipponbare. To be noted: 10^−5 M, FIG. 5, FIG. 6. On the procedure: Mycorrhizal induced calcium responses were measured as described previously (14). Transgenic Oryza sativa Nipponbare lines carrying Yellow Cameleon 3.6 (YC3.6) FRET-based calcium sensor was used to detect calcium spiking. YC3.6 was imaged on a Nikon Eclipse Ti inverted microscope (Nikon, Japan) equipped with an OptoLED Illuminator (model OptoLED, Cairn Research Ltd, UK). YC3.6 was excited at a wavelength of 455 nm using a royal blue LED and was captured with a charge-coupled device (CCD) camera (model RETIGA-SRV, Qimaging, Canada). Emitted fluorescence was separated by an image splitter with a dichroic mirror (model Optosplit II, Cairn Research Ltd, UK) and then passed through a fluorescence filter set. Images were collected every 5 seconds with 1-second exposure and analyzed using MetaFluor (Molecular Devices, Sunnyvale, Calif., USA).
Both LCOs and COs are Required to Induce Calcium Spiking in Trichoblasts. Rhizobia colonize legumes by root hair cells (trichoblasts), whereas AM fungi colonize roots via non-root hair epidermal cells (atrichoblasts). Thus, these different root epidermal cell types may respond differently to COs and LCOs. To test this, we directly compared trichoblast and atrichoblast responses using high concentrations of CO4 in rice. Calcium oscillations observed in rice following treatments of CO4 were restricted to atrichoblasts, with no responses in trichoblasts even with CO4 treatments of 10^−5 M (FIG. 5). This preferential nature of rice atrichoblasts to respond to the AM signals is consistent with a preference for AM fungi to colonize the root via atrichoblasts (26). It is possible that either AM fungi produce signalling molecules other than S-LCO, NS-LCO and CO4 that induce calcium oscillations in rice trichoblasts, or that the mix of signalling molecules is important. To test this, we assessed induction of calcium oscillations by an equimolar mix of 10^−5 M S-LCO, NS-LCO, and CO4.

In the next assay the test system is rice. Put plainly: Root architecture modification in wild-type rice after submersion treatment. To be noted: 10^−8M, 24 hours submersion, assessed after two weeks, FIG. 3. The assay is classed as in vivo, Oryza sativa cv Nipponbare. On the procedure: (§1) Oryza sativa cv Nipponbare wild-type and Tos17 insertion lines in POLLUX (line NC6453) and DMI3 were used for root architecture experiments (12, 13). Seeds were prepared by sterilizing with 2% bleach for 20 minutes, followed by 3, 5-minute rinses with sterile water. The sterile seeds were then imbibed overnight. Seeds were then plated on damp germination paper in Petri plates under sterile conditions and germinated in the dark at 25 degrees for 7 days. Germinated rice plants were then plated on Fahraeus medium on germination paper and grown at 22 degrees under constant light. After 5 days the plants were treated with 10^−8M LCOs and COs for 24 hours by submersion and re-plated onto Fåhræus Medium 1.5% agar plates (0.132 g/L CaCl2, 0.12 g/L MgSO4.7H2O, 0.1 g/L KH2PO4, 0.075 g/L Na2HPO4.2H2O, 5 mg/L Fe-citrate, and 0.07 mg/L each of MnCl2.4H2O, CuSO4.5H2O, ZnCl2, H3BO3, and Na2MoO4.2H2O, adjusted to pH 6.5 before autoclaving). As all signals were suspended in 50% ethanol, the appropriate concentration of ethanol in sterile DI water served as a control. Root system architecture was assessed after 2 weeks.
(§2) Total lateral roots of rice were enumerated manually two weeks after application of 10^−8M COs and LCOs. As COs and LCOs were suspended in 50% ethanol, the control is sterile deionized water containing the appropriate amount of ethanol. Lateral roots were defined as large and fine lateral roots emerging from crown roots, as well as fine lateral roots emerging from large lateral roots. Root system length was measured starting from the root-shoot junction to the tip of the longest root. The number of crown roots was assessed manually as those roots emerging from the root-shoot junction. Root type characterizations were based upon the descriptions in Gutjahr et al. (19). Data were assessed for normality using the Shapiro-Wilk test (α=0.01), and statistical significance was determined using a paired t-test assuming unequal variances, or a Mann-Whitney-Wilcoxon Test if normality was not observed (α=0.05). All statistical analysis was conducted using the R software package (20).

Assay [2] concerns rice knock-out mutants of pollux and dmi3. Put plainly: Root architecture modification in rice Ospollux and Osdmi3 mutants. The assay is classed as in vivo, Oryza sativa cv Nipponbare. To be noted: 10^−8M; Ospollux and Osdmi3 mutants vs wild-type; FIG. 4. The protocol: as §1
as §2, with “Lateral roots were defined as large and fine lateral roots emerging from crown roots, as well as fine lateral roots emerging from large lateral roots.” left out, “Root type characterizations were based upon the descriptions in Gutjahr et al. (19).” left out, “All statistical analysis was conducted using the R software package (20).” left out
To assess the role of the common symbiotic pathway in regulating root architecture modifications in response to purified LCOs and COs, we quantified root responses to mycorrhizal signals in rice knock-out mutants of pollux (upstream of calcium spiking) and dmi3 (downstream of calcium spiking).

As to LCO-IV (C16:0 or C18:1) [NS-LCO], the lateral root emergence entry with M. truncatula is listed as “promotion”. Moreover, in assay [1], the “calcium spiking in trichoblasts” value was “did not induce calcium spiking”. In addition, in the assay on rice, the crown root growth result is “promoted”, the lateral root growth entry is listed as “promoted” and the root system length result was “enhanced”. For the same substance, the “dependence of overall root length increase on POLLUX / DMI3” value in assay [2] was “dependent upon both POLLUX and DMI3”.
Regarding LCO-IV (C16:0, S or C18:1, S) [S-LCO], the “calcium spiking in trichoblasts” value in assay [1] is given as “did not induce calcium spiking”. In the assay on rice, the crown root growth entry is on record as “promoted” and the lateral root growth result is “promoted”.
